SMILES strings stand for the structures. Values after ≈ are worked out from the molar mass of the structure shown. Active and inactive are the calls of the source. The calls are words filed in the database; no cut-off is given here.

Data set [1] concerns the target T1, Ribosyldihydronicotinamide dehydrogenase [quinone] (Homo sapiens, UniProt P16083).
T1 sequence (P16083 whole entry): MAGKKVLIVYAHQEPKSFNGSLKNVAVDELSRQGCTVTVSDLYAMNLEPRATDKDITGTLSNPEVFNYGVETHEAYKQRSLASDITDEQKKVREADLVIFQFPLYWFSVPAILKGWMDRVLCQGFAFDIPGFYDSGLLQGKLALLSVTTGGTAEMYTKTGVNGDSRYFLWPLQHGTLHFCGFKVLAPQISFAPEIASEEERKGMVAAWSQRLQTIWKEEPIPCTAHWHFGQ
Description: Inhibition of human QR2 expressed in Escherichia coli preincubated with BNAH or NRH followed by menadione addition by FLUOstar plate reader assay.

For the next data set, the system named is CHO. Description: Displacement of 2-[125I]iodomelatonin from human MT1R transfected in CHO cells at 10 uM incubated for 30 mins relative to control. The data set is classed as cell-based.
The nature of data set [2]: Octanol-water partition coefficient, logD of the compound at pH 11. The data set is classed as physicochemical.
Data set [3] in a line: Octanol-water partition coefficient, logD of the compound at pH 5. The data set is classed as physicochemical.
Data set [4] in a line: Octanol-water partition coefficient, logD of the compound at pH 6.5. The class given is physicochemical.
Data set [5] in a line: Displacement of 2-[125I]iodomelatonin from human MT2R transfected in CHO cells incubated for 30 mins. The data set is classed as cell-based.
Data set [6] in a line: Octanol-water partition coefficient, logD of the compound at pH 6. The data set is classed as physicochemical.
Data set [7] in a line: Antioxidant activity assessed as oxygen radical scavenging by measuring trolox equivalents preincubated for 15 mins followed by AAPH addition and measured after 80 mins by fluorescence plate reader assay. The class given is functional. The settings on record: time 95.0 min.
Data set [8] has as its target T2, Amine oxidase [flavin-containing] B (Homo sapiens, UniProt P27338).
T2 sequence (P27338 whole entry): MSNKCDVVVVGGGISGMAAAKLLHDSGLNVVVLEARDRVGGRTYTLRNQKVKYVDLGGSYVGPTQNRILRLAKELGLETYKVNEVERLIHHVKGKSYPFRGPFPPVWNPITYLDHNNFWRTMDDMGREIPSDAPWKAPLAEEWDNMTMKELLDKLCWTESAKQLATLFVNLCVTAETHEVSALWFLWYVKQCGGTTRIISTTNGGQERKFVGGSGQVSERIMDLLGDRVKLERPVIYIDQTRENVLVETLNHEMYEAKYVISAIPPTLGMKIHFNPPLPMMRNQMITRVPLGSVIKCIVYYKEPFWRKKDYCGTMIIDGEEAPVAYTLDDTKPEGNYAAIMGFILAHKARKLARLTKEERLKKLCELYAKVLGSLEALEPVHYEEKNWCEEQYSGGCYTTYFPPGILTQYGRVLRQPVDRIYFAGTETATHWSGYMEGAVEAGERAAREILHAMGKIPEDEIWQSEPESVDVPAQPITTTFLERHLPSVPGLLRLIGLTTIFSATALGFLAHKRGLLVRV
Kind of data set: Inhibition of human MAO-B expressed in baculovirus infected BTI insect cells preincubated for 15 mins followed by p-tyramine addition by amplex red reagent based fluorescence microplate reader assay. The class given is cell-based.

Data set [9] relates to NSC. Description: Neurogenic activity in C57BL/6 mouse primary NSCs assessed as increase in number of MAP-2 cells at 10 uM incubated for 10 days by DAPI staining based fluorescence confocal microscopy. The data set is classed as functional, cell-based. The settings on record: time 10.0 day.
In data set [10] the target is T3, Polyunsaturated fatty acid 5-lipoxygenase (Homo sapiens, UniProt P09917).
T3 sequence (P09917 whole entry): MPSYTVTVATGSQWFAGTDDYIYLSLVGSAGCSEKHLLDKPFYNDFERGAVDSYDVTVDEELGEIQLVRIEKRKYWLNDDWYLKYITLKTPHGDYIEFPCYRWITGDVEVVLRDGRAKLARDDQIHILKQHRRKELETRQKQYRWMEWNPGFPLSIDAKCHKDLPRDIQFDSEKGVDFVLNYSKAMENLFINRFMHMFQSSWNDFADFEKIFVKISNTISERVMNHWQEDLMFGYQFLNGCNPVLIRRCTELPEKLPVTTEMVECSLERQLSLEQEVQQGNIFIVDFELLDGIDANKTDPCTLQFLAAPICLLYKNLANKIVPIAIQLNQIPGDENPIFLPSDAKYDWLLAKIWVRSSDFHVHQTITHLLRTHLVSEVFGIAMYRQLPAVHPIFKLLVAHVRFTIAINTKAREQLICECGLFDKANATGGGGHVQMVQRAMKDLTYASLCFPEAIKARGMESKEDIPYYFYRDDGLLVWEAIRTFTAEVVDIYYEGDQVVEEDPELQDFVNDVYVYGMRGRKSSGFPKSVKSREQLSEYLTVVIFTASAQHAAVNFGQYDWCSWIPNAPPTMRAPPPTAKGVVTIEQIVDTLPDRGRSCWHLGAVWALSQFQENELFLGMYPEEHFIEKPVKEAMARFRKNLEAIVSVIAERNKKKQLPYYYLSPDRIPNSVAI
Description: Inhibition of human LOX-5 preincubated for 10 mins followed by AA addition and measured after 20 mins in presence of ATP by fluorescence based assay.

Data set [11] can be described thus: Octanol-water partition coefficient, logD of the compound at pH 12. The class given is physicochemical.
Data set [12] in a line: Octanol-water partition coefficient, logD of the compound at pH 2. The class given is physicochemical.
Data set [13] in a line: Aqueous solubility of compound incubated for 24 hrs by UV-spectra analysis. The class given is physicochemical.
Data set [14] in a line: Octanol-water partition coefficient, logD of the compound at pH 1.2. The class given is physicochemical.
The nature of data set [15]: Octanol-water partition coefficient, logD of the compound at pH 8. The data set is classed as physicochemical.
The nature of data set [16]: Displacement of 2-[125I]iodomelatonin from human MT1R transfected in CHO cells incubated for 30 mins. The class given is cell-based.
The subject of data set [17] is SH-SY5Y. Kind of data set: Neuroprotective activity against R/O induced human SH-SY5Y cells oxidative stress model assessed as cell survival at 1 uM preincubated for 24 hrs followed by rotenone oligomycin A addition and measured after 24 hrs by MTT assay. The data set is classed as functional. The settings on record: read-out: Survival. (Tetrazolium assays rely on reduction of a dye to a coloured formazan, in cell work by metabolically active cells.)

The nature of data set [18]: Octanol-water partition coefficient, logD of the compound at pH 7. The data set is classed as physicochemical.
Data set [19] relates to SH-SY5Y. Kind of data set: Neuroprotective activity against R/O induced human SH-SY5Y cells oxidative stress model assessed as increase in cell survival preincubated for 24 hrs followed by rotenone oligomycin A addition and measured after 24 hrs by MTT assay. The class given is functional, cell-based. Conditions: dose 0.01-10 µM, time 48.0 hrs.
Data set [20] is described as follows: Octanol-water partition coefficient, logD of the compound at pH 10. The data set is classed as physicochemical.
Data set [21] in a line: Octanol-water partition coefficient, logD of the compound at pH 1. The data set is classed as physicochemical.
A short description of data set [22]: Octanol-water partition coefficient, logD of the compound at pH 4. The class given is physicochemical.
The subject of data set [23] is SH-SY5Y. Description: Cytotoxicity against human SH-SY5Y cells at 1 to 100 uM incubated for 24 hrs by MTT method. The class given is toxicity, cell-based. Conditions: dose 1-100 µM.
The target of data set [24] is T4, Amine oxidase [flavin-containing] A (Homo sapiens, UniProt P21397).
T4 sequence (P21397 whole entry): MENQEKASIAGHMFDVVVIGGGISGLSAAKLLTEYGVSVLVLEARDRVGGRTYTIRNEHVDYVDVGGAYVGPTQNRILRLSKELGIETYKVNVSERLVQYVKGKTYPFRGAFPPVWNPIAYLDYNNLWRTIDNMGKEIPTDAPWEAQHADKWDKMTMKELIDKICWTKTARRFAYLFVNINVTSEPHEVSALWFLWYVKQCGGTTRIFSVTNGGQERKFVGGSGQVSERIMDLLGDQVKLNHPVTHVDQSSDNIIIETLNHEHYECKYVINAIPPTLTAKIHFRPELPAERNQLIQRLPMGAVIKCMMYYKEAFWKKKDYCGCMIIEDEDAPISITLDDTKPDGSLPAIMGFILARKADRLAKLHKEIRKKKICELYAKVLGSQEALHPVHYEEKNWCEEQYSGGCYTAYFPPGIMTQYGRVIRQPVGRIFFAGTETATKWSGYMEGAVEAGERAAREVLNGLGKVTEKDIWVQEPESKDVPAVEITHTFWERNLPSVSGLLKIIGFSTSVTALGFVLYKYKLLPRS
Description: Inhibition of human MAO-A expressed in baculovirus infected BTI insect cells preincubated for 15 mins followed by p-tyramine addition by amplex red reagent based fluorescence microplate reader assay.

Data set [25] concerns NSC. Kind of data set: Neurogenic activity in C57BL/6 mouse primary NSCs assessed as increase in number of TuJ-1 cells at 10 uM incubated for 10 days by DAPI staining based fluorescence confocal microscopy. The data set is classed as functional, cell-based. Conditions: time 10.0 day.
Data set [26] can be described thus: Octanol-water partition coefficient, logD of the compound at pH 3. The data set is classed as physicochemical.
The nature of data set [27]: Dissociation constant, pKa of compound. The class given is physicochemical.
Data set [28] can be described thus: Octanol-water partition coefficient, logD of the compound at pH 7.4. The class given is physicochemical.
Data set [29] is described as follows: Octanol-water partition coefficient, logD of the compound at pH 9. The class given is physicochemical.

For orientation: IC50 means the concentration at which inhibition is half-maximal. With `COc1ccc2c(n1)c(CCNC(=O)c1ccco1)c1n2Cc2cccnc2-1`, in [1], half-maximal inhibition (IC50) required 5 nM.

What is called logD is lipophilicity at a set pH, counting ionised and neutral species. A low value points to a more hydrophilic compound. In general, Ki refers to the equilibrium dissociation constant of an inhibitor or competing ligand from its target. A lower Ki goes with a stronger hold on the target. The solubility is how much of the substance goes into solution per volume. High values mean a readily soluble substance, low ones a poorly soluble substance. By pKa is commonly meant the pH at which an ionisable group is half protonated. High values mean a weaker acid or stronger base, low ones a stronger acid or weaker base. With `COc1ccc2c(c1)CC(c1c[nH]c3ccc(OC)cc13)N2` (stereo unspecified), the Activity was 58% in the data set with CHO, 2.3 in data set [7], “Dose-Dependent Effect” in the data set on SH-SY5Y [19] and “Non-Toxic” with SH-SY5Y [23]. The logD in data set [2] came out at 3.31; in [3], 2.97; in [4], 3.3; in data set [6] it was 3.26; in data set [11] it was 3.31; in [12], 1.67. For the same compound, the logD in data set [14] was 1.65; in [15] it was 3.31; in data set [18], 3.31; in data set [20], 3.31; in data set [21], 1.66; in data set [22], 2.28. For the same compound, the logD in data set [26] is 1.78; in data set [28] it was 3.31; in data set [29], 3.31. Besides, the Ki was 620 nM in data set [5] and approximately 10000 nM in data set [16]. Further, the IC50 stood at 3690 nM in data set [8], 5300 nM in data set [10] and 2540 nM in [24]. Besides, the result in the data set with NSC [9] and with NSC [25] was Active. This compound gave a solubility at 24 h in data set [13] of 0.0329 mM (≈ 9.68 µg/mL). Further, the viability at 1 µM with SH-SY5Y [17] was 50%. In data set [27], this compound returned a pKa of 5.26.

With `COc1ccc2[nH]cc(CCNC(C)=O)c2c1` [MELATONIN], the inhibitory constant (Ki) in data set [5] worked out at 0.13 nM; in data set [16], 0.27 nM. The Activity was 2.3 in data set [7] and “Non-Toxic” in the data set with SH-SY5Y [23]. Besides, the concentration in solution in [13] (solubility at 24 h) was 6.64 mM (≈ 1540 µg/mL). Further, in the data set with SH-SY5Y [17], the viability at 1 µM worked out at 43%.
